Consider 16 compounds from ChEMBL document CHEMBL1147010, “Aziridine-2,3-dicarboxylate inhibitors targeting the major cysteine protease of Trypanosoma brucei as lead trypanocidal agents” (Bioorg Med Chem Lett, 2006).

Converted amounts (≈) assume the structure as drawn. The source made the active and inactive calls. The calls are words filed in the database; no cut-off is given here. Some results are limits rather than exact numbers.

Broadly, the IC50 is the point on the concentration scale where inhibition reaches its midpoint. A higher IC50 goes with weaker potency. The Ki is the equilibrium dissociation constant of an inhibitor or competing ligand from its target. A lower Ki goes with a stronger hold on the target. In general, MIC refers to the lowest concentration found to suppress growth. Higher therefore signals weaker potency.

For test [1], the system named is Trypanosoma brucei brucei. Nature of the test: Trypanocidal activity against Trypanosoma brucei brucei after 48 hrs. Type of test: functional, organism-based.
Test [2] deals with J774. The test can be described thus: Cytotoxicity against J774.1 cell line after 48 hrs. It counts as functional, cell-based. Particulars: Mus musculus, J774, 48 h.
Test [3] concerns the target Rhodesain (Trypanosoma brucei rhodesiense) (UniProt Q95PM0). Nature of the test: Inhibition of Trypanosoma brucei rhodesiense rhodesain at 140 uM.
For test [4], the system named is J774. The test can be described thus: Selectivity index, IC50 for J774.1/IC50 for Trypanosoma brucei brucei. Type of test: functional.
A further test deals with Rhodesain (Trypanosoma brucei rhodesiense, UniProt Q95PM0). Nature of the test: Inhibition of Trypanosoma brucei rhodesiense rhodesain.
Rhodesain, sequence (Q95PM0 whole entry): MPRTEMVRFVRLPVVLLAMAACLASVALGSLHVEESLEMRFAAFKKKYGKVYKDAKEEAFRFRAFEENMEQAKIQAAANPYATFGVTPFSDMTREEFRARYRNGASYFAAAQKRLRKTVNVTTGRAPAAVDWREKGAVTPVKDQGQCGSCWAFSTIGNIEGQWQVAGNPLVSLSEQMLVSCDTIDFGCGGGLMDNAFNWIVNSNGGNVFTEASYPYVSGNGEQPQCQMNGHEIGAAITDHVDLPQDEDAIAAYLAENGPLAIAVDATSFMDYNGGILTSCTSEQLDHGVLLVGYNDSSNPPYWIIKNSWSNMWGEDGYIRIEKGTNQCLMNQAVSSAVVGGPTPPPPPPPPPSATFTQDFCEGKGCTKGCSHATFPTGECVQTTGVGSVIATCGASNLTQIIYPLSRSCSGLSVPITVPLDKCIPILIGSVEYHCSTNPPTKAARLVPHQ

Rhodesain (Trypanosoma brucei rhodesiense), sequence (Q95PM0 1-450): as the sequence (Q95PM0 whole entry) above

For `CC(C)(C)OC(=O)NCC(=O)N1CCC[C@@H]1C(=O)N1[C@H](C(=O)O)[C@H]1C(=O)O`, the IC50 (in test [1]; in the test with J774 [2]) was more than 100 µM each time. The inhibition result in test [3] is “inactive”.

`CC(C)C[C@@H](NC(=O)OC(C)(C)C)C(=O)N1CCC[C@H](C(=O)N2[C@H](C(=O)O)[C@H]2C(=O)O)C1`: in test [3], the inhibition result was “inactive”.

As for `CC(C)C[C@@H](NC(=O)OC(C)(C)C)C(=O)N1CCC[C@@H](C(=O)N2[C@H](C(=O)O)[C@H]2C(=O)O)C1`, the inhibition entry in test [3] was “inactive”.

Take `CC(C)C[C@H](NC(=O)OC(C)(C)C)C(=O)N1CCC[C@H](C(=O)N2[C@H](C(=O)O)[C@H]2C(=O)O)C1`: the inhibition result in test [3] was “inactive”.

On to `CC(C)(C)OC(=O)NCC(=O)N1CCC[C@@H](C(=O)N2[C@H](C(=O)O)[C@H]2C(=O)O)C1`, for which, in test [3], the inhibition result was “inactive”.

In the case of `CC(C)C[C@H](NC(=O)OC(C)(C)C)C(=O)N1CCC(C(=O)N2[C@H](C(=O)O)[C@H]2C(=O)O)CC1`, in test [3], the inhibition result was “inactive”.

As for `CC(C)C[C@H](NC(=O)OC(C)(C)C)C(=O)N1CCC[C@@H](C(=O)N2[C@H](C(=O)O)[C@H]2C(=O)O)C1`, the inhibition result in test [3] is “inactive”.

Consider `CCOC(=O)[C@H]1[C@H](C(=O)OCC)N1C(=O)[C@H]1CCN1C(=O)[C@H](CC(C)C)NC(=O)OC(C)(C)C`, for which the “Ratio IC50” value with J774 [4] is recorded as more than 4.8. Further, the figures for the IC50 (in test [1]; in the test with J774 [2]) were 20.6 µM and more than 100 µM, respectively. On Rhodesain, this compound came in with a Ki of 3.1 µM.

As to `CC(C)C[C@H](NC(=O)OC(C)(C)C)C(=O)N1CCC[C@H]1C(=O)N1[C@H](C(=O)O)[C@H]1C(=O)O`, the inhibition result in test [3] was “inactive”.

Take `CCOC(=O)[C@@H]1[C@@H](C(=O)OCC)N1C(=O)[C@@H]1CN1C(=O)[C@@H](CC(C)C)NC(=O)OC(C)(C)C`: the “Ratio IC50” value in the test with J774 [4] is more than 3.5. Also, the IC50 is 28.3 µM in test [1] and more than 100 µM in the test with J774 [2]. At Rhodesain, the Ki is 1.6 µM.

On to `CC(C)C[C@@H](NC(=O)OC(C)(C)C)C(=O)N1CCC[C@@H]1C(=O)N1[C@H](C(=O)OCc2ccccc2)[C@H]1C(=O)OCc1ccccc1`, for which the “Ratio IC50” value with J774 [4] is more than 2.8. Besides, the results for the IC50 (in test [1]; with J774 [2]) were 35.2 µM and more than 100 µM, respectively. Moreover, affinity at Rhodesain was put at a Ki of 2.8 µM.

For `C[C@@H](NC(=O)[C@H](Cc1ccccc1)NC(=O)OC(C)(C)C)C(=O)N1[C@H](C(=O)OCc2ccccc2)[C@H]1C(=O)OCc1ccccc1`, the “Ratio IC50” value in the test on J774 [4] is listed as more than 3.2. The results for the half-inhibitory concentration (IC50) (in test [1]; in the test with J774 [2]) were 30.5 µM and more than 100 µM, respectively. In addition, on Rhodesain, the Ki was determined as 1.2 µM.

For `CC(C)C[C@H](NC(=O)OC(C)(C)C)C(=O)N1CCC[C@@H]1C(=O)N1[C@H](C(=O)OCc2ccccc2)[C@H]1C(=O)OCc1ccccc1`, the “Ratio IC50” value with J774 [4] is reported as more than 3.2. For the same compound, the results for the IC50 (in test [1]; in the test on J774 [2]) were 31.4 µM and more than 100 µM, respectively. Also, the Ki on Rhodesain came out at 1.2 µM.

Take `CC(C)C[C@H](NC(=O)OC(C)(C)C)C(=O)N1CCC[C@H]1C(=O)N1[C@H](C(=O)OCc2ccccc2)[C@H]1C(=O)OCc1ccccc1`: in the test on J774 [4], the “Ratio IC50” value was more than 11.3. In test [1], this compound gave an IC50 of 11.1 µM and an MIC of 125 µM (≈ 77.7 µg/mL). This compound yielded an IC50 with J774 [2] of more than 125 µM. The inhibition constant Ki at Rhodesain was determined as 2.3 µM.

In the case of `CC(C)C[C@H](NC(=O)OC(C)(C)C)C(=O)N1CCC[C@@H](C(=O)N2[C@H](C(=O)OCc3ccccc3)[C@H]2C(=O)OCc2ccccc2)C1`, the “Ratio IC50” value in the test with J774 [4] was more than 3.9. Also, the IC50 was 25.6 µM in test [1] and more than 100 µM in the test with J774 [2]. At Rhodesain, this compound came in with a Ki of 0.6 µM.

Regarding `CC(C)(C)OC(=O)NCC(=O)N1CCC[C@H](C(=O)N2[C@H](C(=O)O)[C@H]2C(=O)O)C1`, the inhibition result in test [3] was “inactive”.
